# Experimental data published in patent US20240067662A1, “KRAS INHIBITORS” (Bristol-Myers Squibb Company, priority 2022, published 2024).
# Biological target: GMPPNP-loaded KRAS G12C (Homo sapiens, UniProt P01116, G12C)
# Test: KRAS G12C RAF Disruption Assay (HTRF)
# Assay type: biochemical
# Conditions: recombinant GMPPNP-loaded KRAS G12C (5 nM), 20 min with compound; GST-RAF1 RBD (9 nM); HTRF signal; read-out: KRASG12C RAF Disruption Assay (IC50)
# In short: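 GMPPNP-loaded KRAS G12C (5 nM) was preincubated with compound for 20 min at room temperature in Tris pH 7.5 buffer with NaCl, MgCl2, DTT and BSA. GST-RAF1 RBD (9 nM) was added for 20 min, then SA-Tb (0.25 nM) for 3 h. IC50 was fitted from the HTRF 520/495 ratio.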
row,Molecule,IC50 [nM]
1,"C#Cc1cccc2cccc(-c3ncc4c(N5CCC6(CCN6C(=O)/C(F)=C/c6nccs6)C5)nc(OC[C@@]56CCCN5C[C@H](F)C6)nc4c3F)c12 (single isomer, unassigned) [Compound 103]",620
2,"C#Cc1cccc2cccc(-c3ncc4c(N5CC6(CCN(C(=O)/C(F)=C/c7ncccn7)CC6)C5)nc(OC[C@@]56CCCN5C[C@H](F)C6)nc4c3F)c12 [Compound 92, (Z)-1-(2-(7-(8-ethynylnaphthalen-1-yl)-8-fluoro-2-(((2R, 7aS)-2-fluorotetrahydro-1H-pyrrolizin-7a(5H)-yl)methoxy)pyrido[4,3-d]pyrimidin-4-yl)-2,7-diazaspiro[3.5]nonan-7-yl)-2-fluoro-3-(pyrimidin-2-yl)prop-2-en-1-one]",24000
3,"C#Cc1c(F)ccc2cc(O)cc(-c3ncc4c(N5C[C@H]6CC[C@@H](C5)N6C(=O)/C(F)=C/c5cc(C)ccn5)nc(OC[C@@]56CCCN5C[C@H](F)C6)nc4c3F)c12 [Compound 3, (Z)-1-((1R, 5S)-3-(7-(8-ethynyl-7-fluoro-3-hydroxynaphthalen-1-yl)-8-fluoro-2-(((2R, 7aS)-2-fluorotetrahydro-1H-pyrrolizin-7a(5H)-yl)methoxy)pyrido[4,3-d]pyrimidin-4-yl)-3,8-diazabicyclo[3.2.1]octan-8-yl)-2-fluoro-3-(4-methylpyridin-2-yl)prop-2-en-1-one]",19
4,"2-((S)-4-(8-fluoro-2-(((S)-1-methylpyrrolidin-2-yl)methoxy)-7-(naphthalen-1-yl)pyrido[4,3-d]pyrimidin-4-yl)-1-((Z)-2-fluoro-3-(pyridin-2-yl)acryloyl)piperazin-2-yl)acetonitrile [Compound 21B]",330
5,"C#Cc1cccc2cccc(-c3ncc4c(N(C)C5CCN(C(=O)/C(F)=C/c6nccs6)C5C)nc(OC[C@@]56CCCN5C[C@H](F)C6)nc4c3F)c12 (single isomer, unassigned) [Example 73 cis isomer 1]",110
6,"N#CC[C@H]1CN(c2nc(OC[C@@]34CCCN3C[C@H](F)C4)nc3c(F)c(-c4cc(F)ccc4C(F)(F)F)ncc23)CCN1C(=O)/C(F)=C/c1nccs1 [Example 45, 2-((S)-1-((Z)-2-fluoro-3-(thiazol-2-yl)acryloyl)-4-(8-fluoro-7-(5-fluoro-2-(trifluoromethyl)phenyl)-2-(((2R, 7aS)-2-fluorotetrahydro-1H-pyrrolizin-7a(5H)-yl)methoxy)pyrido[4,3-d]pyrimidin-4-yl)piperazin-2-yl)acetonitrile]",460
7,"C#Cc1c(F)ccc2cc(O)cc(-c3ncc4c(N5C[C@H]6CC[C@@H](C5)N6C(=O)/C(F)=C/c5ccc(Br)cn5)nc(OC[C@@]56CCCN5C[C@H](F)C6)nc4c3F)c12 [Compound 9, (Z)-3-(5-bromopyridin-2-yl)-1-((1R, 5S)-3-(7-(8-ethynyl-7-fluoro-3-hydroxynaphthalen-1-yl)-8-fluoro-2-(((2R, 7aS)-2-fluorotetrahydro-1H-pyrrolizin-7a(5H)-yl)methoxy)pyrido[4,3-d]pyrimidin-4-yl)-3,8-diazabicyclo[3.2.1]octan-8-yl)-2-fluoroprop-2-en-1-one]",350
8,"N#CC[C@H]1CN(c2nc(OC[C@@]34CCCN3C[C@H](F)C4)nc3c(F)c(-c4ccccc4C4CCC4)ncc23)CCN1C(=O)/C(F)=C/c1ccccn1 [Compound 81, 2-((2S)-4-(7-(2-cyclobutylphenyl)-8-fluoro-2-(((2R, 7aS)-2-fluorotetrahydro-1H-pyrrolizin-7a(5H)-yl)methoxy)pyrido[4,3-d]pyrimidin-4-yl)-1-((Z)-2-fluoro-3-(pyridin-2-yl)acryloyl)piperazin-2-yl)acetonitrile]",57
9,"C#Cc1cccc2cccc(-c3ncc4c(N5CC6(CCN(C(=O)/C(F)=C/c7ccccn7)CC6)C5)nc(OC[C@@]56CCCN5C[C@H](F)C6)nc4c3F)c12 [Compound 91, (Z)-1-(2-(7-(8-ethynylnaphthalen-1-yl)-8-fluoro-2-(((2R, 7aS)-2-fluorotetrahydro-1H-pyrrolizin-7a(5H)-yl)methoxy)pyrido[4,3-d]pyrimidin-4-yl)-2,7-diazaspiro[3.5]nonan-7-yl)-2-fluoro-3-(pyridin-2-yl)prop-2-en-1-one]",5000
10,"C#Cc1c(F)ccc2cc(O)cc(-c3ncc4c(N5C[C@@]6(NC(=O)/C(F)=C/c7ccccn7)CC[C@@H]5C6)nc(OC[C@@]56CCCN5C[C@H](F)C6)nc4c3F)c12 [Compound 13, (Z)—N-((1R, 4R)-2-(7-(8-ethynyl-7-fluoro-3-hydroxynaphthalen-1-yl)-8-fluoro-2-(((2R, 7aS)-2-fluorotetrahydro-1H-pyrrolizin-7a(5H)-yl)methoxy)pyrido[4,3-d]pyrimidin-4-yl)-2-azabicyclo[2.2.1]heptan-4-yl)-2-fluoro-3-(pyridin-2-yl)acrylamide]",38
11,"C#Cc1c(F)ccc2cc(O)cc(-c3ncc4c(N5CCN(C(=O)/C(F)=C/c6ccccn6)CC5)nc(OC[C@@H]5CCCN5CCCN=[N+]=[N-])nc4c3F)c12 [Compound 111, (S,Z)-1-(4-(2-((1-(3-azidopropyl)pyrrolidin-2-yl)methoxy)-7-(8-ethynyl-7-fluoro-3-hydroxynaphthalen-1-yl)-8-fluoropyrido[4,3-d]pyrimidin-4-yl)piperazin-1-yl)-2-fluoro-3-(pyridin-2-yl)prop-2-en-1-one]",11
12,"C#Cc1cccc2cccc(-c3ncc4c(N5C[C@H]6CN(C(=O)/C(F)=C/c7ncccn7)C[C@H]6C5)nc(OC[C@@]56CCCN5C[C@H](F)C6)nc4c3F)c12 [Compound 101, (Z)-1-((3aR, 6aS)-5-(7-(8-ethynylnaphthalen-1-yl)-8-fluoro-2-(((2R, 7aS)-2-fluorotetrahydro-1H-pyrrolizin-7a(5H)-yl)methoxy)pyrido[4,3-d]pyrimidin-4-yl)hexahydropyrrolo[3,4-c]pyrrol-2(1H)-yl)-2-fluoro-3-(pyrimidin-2-yl)prop-2-en-1-one]",12000
13,"C#Cc1c(F)ccc2cc(O)cc(-c3ncc4c(N5CCN(C(=O)/C(F)=C/c6ccccn6)CC5)nc(OC[C@@]56CCCN5C[C@H](F)C6)nc4c3F)c12 [Example 27, (Z)-1-(4-(7-(8-ethynyl-7-fluoro-3-hydroxynaphthalen-1-yl)-8-fluoro-2-(((2R, 7aS)-2-fluorotetrahydro-1H-pyrrolizin-7a(5H)-yl)methoxy)pyrido[4,3-d]pyrimidin-4-yl)piperazin-1-yl)-2-fluoro-3-(pyridin-2-yl)prop-2-en-1-one]",3
14,"C#Cc1c(F)c(F)cc2cccc(-c3ncc4c(N5CCN(C(=O)/C(F)=C/c6ncccn6)CC5)nc(OC[C@@]56CCCN5C[C@H](F)C6)nc4c3F)c12 [Compound 98, (Z)-1-(4-(7-(8-ethynyl-6,7-difluoronaphthalen-1-yl)-8-fluoro-2-(((2R, 7aS)-2-fluorotetrahydro-IH-pyrrolizin-7a(5H)-yl)methoxy)pyrido[4,3-d]pyrimidin-4-yl)piperazin-1-yl)-2-fluoro-3-(pyrimidin-2-yl)prop-2-en-1-one]",91
15,"N#CC[C@H]1CN(c2nc(OC[C@@]34CCCN3C[C@H](F)C4)nc3c(F)c(-c4ccccc4C4CC4)ncc23)CCN1C(=O)/C(F)=C/c1ccccn1 [Compound 79, 2-((2S)-4-(7-(2-cyclopropylphenyl)-8-fluoro-2-(((2R, 7aS)-2-fluorotetrahydro-1H-pyrrolizin-7a(5H)-yl)methoxy)pyrido[4,3-d]pyrimidin-4-yl)-1-((Z)-2-fluoro-3-(pyridin-2-yl)acryloyl)piperazin-2-yl)acetonitrile]",65
